The source of these data is patent US12466813B2, “PRC1 inhibitors and methods of treatment therewith” (The Regents of the University of Michigan, priority 2018, dated 2025).

For orientation: Kd means a measure of binding affinity in units of concentration. The low end stands for a tighter complex, the high end for a looser complex.

The target in this test is T1, RING1B-BMI1 (Homo sapiens, UniProt Q99496).
T1 sequence (Q99496 1-336): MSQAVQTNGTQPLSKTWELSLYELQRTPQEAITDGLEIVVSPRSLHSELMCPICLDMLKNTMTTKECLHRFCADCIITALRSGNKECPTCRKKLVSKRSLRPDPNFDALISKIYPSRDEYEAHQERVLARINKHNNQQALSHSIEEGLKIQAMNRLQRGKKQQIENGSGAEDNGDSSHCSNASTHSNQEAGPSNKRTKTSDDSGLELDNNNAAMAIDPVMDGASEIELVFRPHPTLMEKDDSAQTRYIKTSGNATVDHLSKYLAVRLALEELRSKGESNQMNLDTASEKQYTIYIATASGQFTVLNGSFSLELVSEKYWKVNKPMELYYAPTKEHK
T1 sequence (P35226 1-326 partner): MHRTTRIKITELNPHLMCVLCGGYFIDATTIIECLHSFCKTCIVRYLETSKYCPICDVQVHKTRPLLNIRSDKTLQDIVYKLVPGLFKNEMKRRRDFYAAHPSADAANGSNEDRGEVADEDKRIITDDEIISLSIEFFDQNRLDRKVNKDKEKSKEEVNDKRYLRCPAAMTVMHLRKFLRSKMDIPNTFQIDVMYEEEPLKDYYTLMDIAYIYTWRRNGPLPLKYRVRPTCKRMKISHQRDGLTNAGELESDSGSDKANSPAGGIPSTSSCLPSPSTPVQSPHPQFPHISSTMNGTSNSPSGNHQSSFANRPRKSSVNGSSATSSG
The test can be described thus: KD classes of Table A (direct binding to Ring1B-Bmi1). The following applies: class given in Table A. As to the method:
Experiments were conducted during development of embodiments herein to develop small molecule inhibitors of PRC1 by targeting the Ring1B-BMI1 E3 ligase. These compounds bind directly to Ring1B-Bmi1 with low-micromolar affinity and inhibit PRC1 in vitro and in cells. […] Experiments were conducted during development of embodiments herein to test COMPOUND 1 in leukemia stem cell models represented by TEX cells (Ref. 22; herein incorporated by reference in its entirety) and M9-ENL1 cells (Ref. 23; herein incorporated by reference in its entirety). […] In some embodiments, COMPOUND 1 and COMPOUND 1 analogs are find use as agents in targeting leukemia and other cancer stem cells.
The compounds listed in Table A have been synthesized and/or tested for activity in inhibiting activity of PRC1 complex, and are within the scope herein.

Some results are limits rather than exact numbers.

In turn, `CCc1c(-c2c(C)ccc3[nH]ccc23)[nH]c(C(=O)O)c1-c1cccc2[nH]ccc12` [compound 2] yielded a Kd of under 20 µM.
The value for `COc1cc(Cl)c(-c2c(C(=O)O)[nH]c(-c3cccc4[nH]ccc34)c2C(C)C)cc1[N+](=O)[O-]` [compound 3] was under 20 µM; that for `CC(C)c1c(-c2cccc3[nH]ccc23)[nH]c(C(=O)O)c1-c1cc([N+](=O)[O-])c(O)cc1Cl` [compound 4] was under 20 µM; that for `COc1cc(Cl)c(-c2c(C(=O)O)[nH]c(-c3cccc4[nH]ccc34)c2C(C)C)cc1N` [compound 5] was under 20 µM.
The value for `CCc1c(-c2c(C)ccc3[nH]ccc23)[nH]c(C(=O)O)c1-c1c(Cl)ccc2[nH]ccc12` [compound 6] was under 20 µM.
With `Cc1ccc2[nH]ccc2c1-c1[nH]c(C(=O)O)c(-c2c(Cl)ccc3[nH]ccc23)c1C(C)C` [compound 7] the figure was under 20 µM; with `Cc1cc(-c2[nH]c(C(=O)O)c(-c3c(Cl)ccc4[nH]ccc34)c2C(C)C)c2cc[nH]c2c1` [compound 8], under 20 µM; with `CCc1cc(-c2[nH]c(C(=O)O)c(-c3c(Cl)ccc4[nH]ccc34)c2C(C)C)c2cc[nH]c2c1` [compound 9], under 20 µM.
In turn, `CC(C)c1c(-c2cc(C(F)(F)F)cc3[nH]ccc23)[nH]c(C(=O)O)c1-c1c(Cl)ccc2[nH]ccc12` [compound 10] showed a Kd of under 20 µM.
With `COc1cc(-c2[nH]c(C(=O)O)c(-c3c(Cl)ccc4[nH]ccc34)c2C(C)C)c2cc[nH]c2c1` [compound 11] the figure was under 20 µM; with `CC(C)c1c(-c2cc(O)cc3[nH]ccc23)[nH]c(C(=O)O)c1-c1c(Cl)ccc2[nH]ccc12` [compound 12], under 20 µM.
With `CC(C)c1c(-c2cc(Cl)cc3[nH]ccc23)[nH]c(C(=O)O)c1-c1c(Cl)ccc2[nH]ccc12` [compound 13] the figure was under 20 µM; with `CC(C)c1c(-c2cc(F)cc3[nH]ccc23)[nH]c(C(=O)O)c1-c1c(Cl)ccc2[nH]ccc12` [compound 14], under 20 µM; with `CCc1c(-c2cccc3[nH]ccc23)[nH]c(C(=O)O)c1-c1ccc(OC)cc1Br` [compound 15], under 20 µM.
The value for `CCc1c(-c2cccc3[nH]ccc23)[nH]c(C(=O)O)c1-c1c(Cl)ccc2[nH]ccc12` [compound 16] was under 20 µM; that for `CC(C)c1c(-c2cccc3[nH]ccc23)[nH]c(C(=O)O)c1-c1ccccc1Cl` [compound 17] was under 20 µM.
Turning to `CCc1c(-c2cccc3[nH]ccc23)[nH]c(C(=O)O)c1-c1c(Cl)cc(OC)c2[nH]ccc12` [compound 18], the Kd is under 20 µM.
As for `COc1ccc(-c2c(C(=O)O)[nH]c(-c3cccc4[nH]ccc34)c2C(C)C)c(Cl)c1` [compound 19], the Kd is under 20 µM.
For `CCc1c(-c2cccc3[nH]ccc23)[nH]c(C(=O)O)c1-c1cccc2[nH]ccc12` [compound 20], the Kd is under 20 µM.
On to `CCc1c(-c2cccc3[nH]ccc23)[nH]c(C(=O)O)c1-c1cccc2c1ccn2CC` [compound 21], for which the Kd was under 20 µM.
The value for `CCc1c(-c2ccc(C)c3[nH]ccc23)[nH]c(C(=O)O)c1-c1cccc2[nH]ccc12` [compound 22] was under 20 µM; that for `CCOc1ccc(-c2c(C(=O)O)[nH]c(-c3cccc4[nH]ccc34)c2CC)c(Cl)c1` [compound 23] was under 20 µM; that for `CCc1c(-c2cccc3[nH]ccc23)[nH]c(C(=O)O)c1-c1ccc(OC)cc1Cl` [compound 24] was under 20 µM.
In turn, `CCc1c(-c2cccc3[nH]ccc23)[nH]c(C(=O)O)c1-c1ccc2cc[nH]c2c1` [compound 25] returned a Kd of under 20 µM.
In turn, `Cc1c[nH]c2cccc(-c3[nH]c(C(=O)O)c(-c4c(Cl)ccc5[nH]ccc45)c3C(C)C)c12` [compound 26] had a Kd of under 20 µM.
In the case of `CC(C)c1c(-c2cccc3[nH]cc(CCO)c23)[nH]c(C(=O)O)c1-c1c(Cl)ccc2[nH]ccc12` [compound 27], the Kd is under 20 µM.
The compound `CC(C)c1c(-c2cc(F)cc3[nH]cc(CCO)c23)[nH]c(C(=O)O)c1-c1c(Cl)ccc2[nH]ccc12` [compound 28] registered a Kd of under 20 µM.
With `O=C(O)c1[nH]c(-c2cccc3[nH]ccc23)c(C2CC2)c1-c1cccc2[nH]ccc12` [compound 29] the figure was under 20 µM.
The value for `CC(c1c(-c2cccc3[nH]ccc23)[nH]c(C(=O)O)c1-c1cccc2[nH]ccc12)C(F)F` (centres unmarked) [compound 30, 4-(1,1-Difluoropropan-2-yl)-3,5-di(1H-indol-4-yl)-1H-pyrrole-2-carboxylic acid] was under 20 µM.
With `CC(CO)c1c(-c2cccc3[nH]ccc23)[nH]c(C(=O)O)c1-c1cccc2[nH]ccc12` (centres unmarked) [compound 31] the figure was under 20 µM; with `CC(CF)c1c(-c2cccc3[nH]ccc23)[nH]c(C(=O)O)c1-c1cccc2[nH]ccc12` (centres unmarked) [compound 32], under 20 µM.
`CC(C)c1c(-c2cccc3[nH]ccc23)[nH]c(C(=O)O)c1-c1cccc2[nH]ccc12` [compound 33] gave a Kd of under 20 µM.
With `Cc1c[nH]c2cccc(-c3c(C(=O)O)[nH]c(-c4cccc5[nH]ccc45)c3C(C)C)c12` [compound 34] the figure was under 20 µM; with `CC(C)c1c(-c2cc(F)cc3[nH]ccc23)[nH]c(C(=O)O)c1-c1cccc2[nH]ccc12` [compound 35], under 20 µM; with `CC(C)c1c(-c2cc(F)cc3[nH]ccc23)[nH]c(C(=O)O)c1-c1cc(F)cc2[nH]ccc12` [compound 36], under 20 µM.
The value for `COc1ccc(-c2c(C(=O)O)[nH]c(-c3cc(F)cc4[nH]ccc34)c2C(C)C)c2cc[nH]c12` [compound 37] was under 20 µM; that for `CC(C)c1c(-c2cc(F)cc3[nH]ccc23)[nH]c(C(=O)O)c1-c1ccc2[nH]ccc2c1` [compound 38] was under 20 µM.
The compound `COc1cc(-c2c(C(=O)O)[nH]c(-c3cc(F)cc4[nH]ccc34)c2C(C)C)c2cc[nH]c2c1` [compound 39] displayed a Kd of under 20 µM.
The compound `CC(C)c1c(-c2cc(F)cc3[nH]ccc23)[nH]c(C(=O)O)c1-c1cccc2[nH]ncc12` [compound 40] displayed a Kd of under 20 µM.
With `CC(C)c1c(-c2cc(F)cc3[nH]ccc23)[nH]c(C(=O)O)c1-c1cc(Cl)cc2[nH]ccc12` [compound 41] the figure was under 20 µM; with `CCOc1cc(-c2c(C(=O)O)[nH]c(-c3cc(F)cc4[nH]ccc34)c2C(C)C)c2cc[nH]c2c1` [compound 42], under 20 µM.
`CC(C)c1c(-c2cc(F)cc3[nH]ccc23)[nH]c(C(=O)O)c1-c1cc(C(F)(F)F)cc2[nH]ccc12` [compound 43] gave a Kd of under 20 µM.
With `CC(C)c1c(-c2cc(F)cc3[nH]ccc23)[nH]c(C(=O)O)c1-c1cccc2c1ccn2CCO` [compound 44] the figure was under 20 µM; with `CCc1cc(-c2c(C(=O)O)[nH]c(-c3cc(F)cc4[nH]ccc34)c2C(C)C)c2cc[nH]c2c1` [compound 45], under 20 µM; with `COc1cc(-c2c(C(=O)O)[nH]c(-c3cc(F)cc4[nH]ccc34)c2C(C)C)c2ccn(CC(=O)O)c2c1` [compound 46], under 20 µM.
The value for `CC(C)c1c(-c2cc(F)cc3[nH]ccc23)[nH]c(C(=O)O)c1-c1cccc2[nH]c(C(=O)O)cc12` [compound 47] was under 20 µM; that for `CC(C)c1c(-c2cc(F)cc3[nH]ccc23)[nH]c(C(=O)O)c1-c1cc(OC(F)(F)F)cc2[nH]ccc12` [compound 48] was under 20 µM.
